Measurements reported in ChEMBL document CHEMBL5154672, “Design and synthesis of HDAC inhibitors to enhance the therapeutic effect of diffuse large B-cell lymphoma by improving metabolic stability and pharmacokinetic characteristics” (Eur J Med Chem, 2022).

Assays:
TMD8 [1] = test: Induction of apoptosis in human TMD8 cells assessed as viable cells at 2 uM incubated for 24 hrs by Annexin V-FITC/PI staining based flow cytometric analysis (reference value: 96.4%); format: functional; conditions: read-out: Activity
MDA-MB-231 = test: Antiproliferative activity against human MDA-MB-231 cells assessed as remaining cell activity at 2 uM incubated for 72 hrs by luminescence assay relative to control; format: functional
MOLT-4 = test: Antiproliferative activity against human MOLT-4 cells incubated for 72 hrs by luminescence assay; format: functional, cell-based; conditions: MOLT-4, 72 h
[2] = AUC (0 to infinity) in ICR mouse at 25 mg/kg, po measured upto 24 hrs by LC-MS/MS analysis; format: ADME, organism-based; parameters: time < 24 hrs, dose 25 mg/kg, route po; conditions: in vivo
[3] = Metabolic stability in human liver microsomes assessed as intrinsic clearance measured for 75 to 130 mins by LC-MS/MS analysis; format: ADME, Microsome; conditions: liver microsomes, time 75-130 min, read-out: CLH
A549 = test: Antiproliferative activity against human A549 cells incubated for 72 hrs by luminescence assay; format: functional, cell-based; conditions: A549, 72 h
[4] = MRT in ICR mouse at 25 mg/kg, po measured upto 24 hrs by LC-MS/MS analysis; format: ADME, organism-based; conditions: in vivo
TMD8 [5] = test: Induction of apoptosis in human TMD8 cells assessed as early apoptotic cells at 2 uM incubated for 24 hrs by Annexin V-FITC/PI staining based flow cytometric analysis (reference value: 0.24%); format: functional
TMD8 [6] = test: Induction of apoptosis in human TMD8 cells assessed as necrotic cells at 4 uM incubated for 24 hrs by Annexin V-FITC/PI staining based flow cytometric analysis (reference value: 1.85%); format: functional
CCRF-CEM = test: Antiproliferative activity against human CCRF-CEM cells incubated for 72 hrs by luminescence assay; format: functional, cell-based
[7] = Metabolic stability in monkey liver microsomes assessed as half life measured for 75 to 130 mins by LC-MS/MS analysis; format: ADME, Macaca fascicularis, Microsome; conditions: cynomolgus monkey, time 75-130 min
[8] = Cmax in CB.17 SCID mouse xenografted with human TMD8 cells at 25 mg/kg, po measured upto 24 hrs by LC-MS/MS analysis; format: ADME, organism-based; parameters: dose 25 mg/kg, time < 24 hrs, route po; conditions: in vivo
[9] = Metabolic stability in rat liver microsomes assessed as half life measured for 75 to 130 mins by LC-MS/MS analysis; format: ADME, Microsome; conditions: time 75-130 min
[10] = MRT (0 to t) in CB.17 SCID mouse xenografted with human TMD8 cells at 100 mg/kg, po measured upto 24 hrs by LC-MS/MS analysis; format: ADME, organism-based; conditions: in vivo
HCT-116 [11] = test: Antiproliferative activity against human HCT-116 cells assessed as remaining cell activity at 2 uM incubated for 72 hrs by luminescence assay relative to control; format: functional
[12] = AUC (0 to t) in CB.17 SCID mouse xenografted with human TMD8 cells at 50 mg/kg, po measured upto 24 hrs by LC-MS/MS analysis; format: ADME, organism-based; parameters: time < 24 hrs, dose 50 mg/kg, route po; conditions: in vivo
[13] = Metabolic stability in human liver microsomes assessed as half life measured for 75 to 130 mins by LC-MS/MS analysis; format: ADME, Microsome; conditions: liver microsomes, time 75-130 min
[14] = AUC (0 to infinity) in CB.17 SCID mouse xenografted with human TMD8 cells at 50 mg/kg, po measured upto 24 hrs by LC-MS/MS analysis; format: ADME, organism-based; parameters: dose 50 mg/kg, time < 24 hrs, route po; conditions: in vivo
TMD8 [15] = test: Induction of apoptosis in human TMD8 cells assessed as viable cells at 1 uM incubated for 24 hrs by Annexin V-FITC/PI staining based flow cytometric analysis (reference value: 96.4%); format: functional; conditions: read-out: Activity
[16] = Cmax in CB.17 SCID mouse xenografted with human TMD8 cells at 50 mg/kg, po measured upto 24 hrs by LC-MS/MS analysis; format: ADME, organism-based; parameters: dose 50 mg/kg, time < 24 hrs, route po; conditions: in vivo
TMD8 [17] = test: Induction of apoptosis in human TMD8 cells assessed as late apoptotic cells at 4 uM incubated for 24 hrs by Annexin V-FITC/PI staining based flow cytometric analysis (reference value: 1.54%); format: functional
Histone deacetylase 2 = Histone deacetylase 2 (Homo sapiens, UniProt Q92769); test: Inhibition of HDAC2 (unknown origin) using RHKK(Ac)AMC fluorogenic peptide as substrate preincubated for 10 mins followed by substrate addition for 1 hr in presence of ATP by fluoroscence based assay
TMD8 [18] = test: Induction of apoptosis in human TMD8 cells assessed as late apoptotic cells at 2 uM incubated for 24 hrs by Annexin V-FITC/PI staining based flow cytometric analysis (reference value: 1.54%); format: functional
TMD8 [19] = test: Induction of apoptosis in human TMD8 cells assessed as viable cells at 4 uM incubated for 24 hrs by Annexin V-FITC/PI staining based flow cytometric analysis (reference value: 96.4%); format: functional; conditions: read-out: Activity
Histone deacetylase 3 = Histone deacetylase 3 (Homo sapiens, UniProt O15379); test: Inhibition of HDAC3 (unknown origin) using RHKK(Ac)AMC fluorogenic peptide as substrate preincubated for 10 mins followed by substrate addition for 1 hr in presence of ATP by fluoroscence based assay
[20] = AUC (0 to infinity) in CB.17 SCID mouse xenografted with human TMD8 cells at 25 mg/kg, po measured upto 24 hrs by LC-MS/MS analysis; format: ADME, organism-based; parameters: time < 24 hrs, dose 25 mg/kg, route po; conditions: in vivo
[21] = MRT(0 to infinity) in CB.17 SCID mouse xenografted with human TMD8 cells at 100 mg/kg, po measured upto 24 hrs by LC-MS/MS analysis; format: ADME, organism-based; conditions: in vivo
NCI-H441 = test: Antiproliferative activity against human NCI-H441 cells incubated for 72 hrs by luminescence assay; format: functional, cell-based; conditions: NCI-H441, 72 h
HCT-116 [22] = test: Antiproliferative activity against human HCT-116 cells incubated for 72 hrs by luminescence assay; format: functional, cell-based; conditions: HCT-116, 72 h
[23] = Metabolic stability in monkey liver microsomes assessed as intrinsic clearance measured for 75 to 130 mins by LC-MS/MS analysis; format: ADME, Macaca fascicularis, Microsome; conditions: cynomolgus monkey, time 75-130 min, read-out: CLH
[24] = Oral bioavailability in ICR mouse at 25 mg/kg measured upto 24 hrs by LC-MS/MS analysis; format: ADME, organism-based; conditions: in vivo
Rec1 = test: Antiproliferative activity against human REC1 cells incubated for 72 hrs by luminescence assay; format: functional, cell-based; conditions: Rec1, 72 h
[25] = Metabolic stability in dog liver microsomes assessed as intrinsic clearance measured for 75 to 130 mins by LC-MS/MS analysis; format: ADME, Canis lupus familiaris, Microsome; conditions: time 75-130 min, read-out: CLH
[26] = Cmax in ICR mouse at 25 mg/kg, po measured upto 24 hrs by LC-MS/MS analysis; format: ADME, organism-based; parameters: time < 24 hrs, dose 25 mg/kg, route po; conditions: in vivo
[27] = Half life in ICR mouse at 25 mg/kg, po measured upto 24 hrs by LC-MS/MS analysis; format: ADME, organism-based; conditions: in vivo
[28] = Cmax in CB.17 SCID mouse xenografted with human TMD8 cells at 100 mg/kg, po measured upto 24 hrs by LC-MS/MS analysis; format: ADME, organism-based; parameters: time < 24 hrs, dose 100 mg/kg, route po; conditions: in vivo
TMD8 [29] = test: Induction of apoptosis in human TMD8 cells assessed as necrotic cells at 1 uM incubated for 24 hrs by Annexin V-FITC/PI staining based flow cytometric analysis (reference value: 1.85%); format: functional
[30] = MRT(0 to infinity) in CB.17 SCID mouse xenografted with human TMD8 cells at 50 mg/kg, po measured upto 24 hrs by LC-MS/MS analysis; format: ADME, organism-based; conditions: in vivo

Histone deacetylase 3, sequence (O15379 whole entry): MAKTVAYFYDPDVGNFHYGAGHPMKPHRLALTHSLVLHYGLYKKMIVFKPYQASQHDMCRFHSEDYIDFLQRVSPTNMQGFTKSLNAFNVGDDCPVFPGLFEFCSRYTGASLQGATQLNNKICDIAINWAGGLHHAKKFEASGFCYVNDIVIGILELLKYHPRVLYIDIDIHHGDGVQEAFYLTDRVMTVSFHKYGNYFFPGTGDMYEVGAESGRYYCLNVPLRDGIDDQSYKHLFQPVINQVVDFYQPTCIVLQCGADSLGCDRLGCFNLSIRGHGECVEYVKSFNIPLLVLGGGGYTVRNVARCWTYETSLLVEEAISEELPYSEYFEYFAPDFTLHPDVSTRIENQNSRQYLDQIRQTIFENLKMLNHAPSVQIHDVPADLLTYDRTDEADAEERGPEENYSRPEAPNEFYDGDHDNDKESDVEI
Histone deacetylase 2, sequence (Q92769 whole entry): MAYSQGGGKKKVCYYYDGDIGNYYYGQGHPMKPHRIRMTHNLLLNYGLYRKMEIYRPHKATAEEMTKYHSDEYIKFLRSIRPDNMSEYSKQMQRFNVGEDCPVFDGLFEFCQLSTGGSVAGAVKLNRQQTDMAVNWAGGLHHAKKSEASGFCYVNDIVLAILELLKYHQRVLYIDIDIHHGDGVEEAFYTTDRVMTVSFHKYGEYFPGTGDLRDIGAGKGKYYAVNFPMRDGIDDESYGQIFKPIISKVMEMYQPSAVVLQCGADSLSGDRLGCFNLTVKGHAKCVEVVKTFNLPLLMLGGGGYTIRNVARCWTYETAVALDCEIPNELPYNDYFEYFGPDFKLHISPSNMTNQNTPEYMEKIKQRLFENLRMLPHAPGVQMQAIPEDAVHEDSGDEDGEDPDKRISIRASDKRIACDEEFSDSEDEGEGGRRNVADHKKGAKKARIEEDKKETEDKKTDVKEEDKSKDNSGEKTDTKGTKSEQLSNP

- IC50 (MOLT-4): 380 nM
- AUC(0-inf) [2]: 5180 ng·h/mL
- microsomal CLint [3]: 1.7 µL/min/mg
- IC50 (A549): 2850 nM
- MRT [4]: 2.6 h
- IC50 (CCRF-CEM): 480 nM
- half-life [7]: 1.63 h
- Cmax [8]: 1700 ng/mL
- half-life [9]: 1.75 h
- MRT last at 24 h [10]: 1.43 h
- AUC(0-t) at 24 h [12]: 9710 ng·h/mL
- half-life [13]: 13.3 h
- AUC(0-inf) [14]: 9730 ng·h/mL
- Cmax [16]: 14700 ng/mL
- IC50 (Histone deacetylase 2): 168 nM
- IC50 (Histone deacetylase 3): 443 nM
- AUC(0-inf) [20]: 1230 ng·h/mL
- MRT inf [21]: 1.51 h
- IC50 (NCI-H441): 2620 nM
- IC50 (HCT-116 [22]): 1160 nM
- microsomal CLint [23]: 14.1 µL/min/mg
- bioavailability [24]: 39.9%
- microsomal CLint [25]: 1.32 µL/min/mg
- Cmax [26]: 3100 ng/mL
- half-life [27]: 4.4 h
- Cmax [28]: 10700 ng/mL
- MRT inf [30]: 0.821 h
SMILES: Nc1ccccc1NC(=O)c1ccc(CN2CCC/C(=C\c3ccccn3)C2=O)cc1
- viability at 2 µM (TMD8 [1]): 75.3%
- Activity (MDA-MB-231): 64.94%
- Activity (TMD8 [5]): 10.3%
- Activity (TMD8 [6]): 8.19%
- Activity (HCT-116 [11]): 44.01%
- viability at 1 µM (TMD8 [15]): 92.2%
- Activity (TMD8 [17]): 9.64%
- Activity (TMD8 [18]): 7.94%
- viability at 4 µM (TMD8 [19]): 57.4%
- IC50 (Rec1): 330 nM
- Activity (TMD8 [29]): 3.64%
